Experimental data published in ChEMBL document CHEMBL5537158, “Polymyxins with Potent Antibacterial Activity against Colistin-Resistant Pathogens: Fine-Tuning Hydrophobicity with Unnatural Amino Acids” (J Med Chem, 2024).
Converted amounts (≈) assume the structure as drawn. The source made the active and inactive calls. The calls are words filed in the database; no cut-off is given here. Positions of bridges follow the written chain, without caps; N, C: chain ends. Non-standard residues stand in square brackets, D forms with d. Residues, ends and D or L forms follow the SMILES beside them. *: point of attachment. Benzoyl(4-Ph) = O=C(c1ccc(-c2ccccc2)cc1)*; Gly(octyl) = CCCCCCCC[C@H](N)C(=O)O; Octanoyl = CCCCCCCC(=O)*; Dab = NCC[C@H](N)C(=O)O

What was measured:
Acinetobacter baumannii [1] = assay: Antimicrobial activity against colistin resistant Acinetobacter baumannii clinical isolate 3 assessed as bacterial growth inhibition incubated for 20 hrs by broth microdilution method; format: functional
Escherichia coli [2] = assay: Antibacterial activity against […] Escherichia coli ATCC 25922 assessed as bacterial growth inhibition incubated for 20 hrs by broth microdilution method; format: functional
Klebsiella pneumoniae [3] = assay: Antimicrobial activity against colistin resistant Klebsiella pneumoniae clinical isolate 4 assessed as bacterial growth inhibition incubated for 20 hrs by broth microdilution method; format: functional
Pseudomonas aeruginosa [4] = assay: Antimicrobial activity against colistin resistant Pseudomonas aeruginosa 7197/19 assessed as bacterial growth inhibition incubated for 20 hrs by broth microdilution method; format: functional
Klebsiella pneumoniae [5] = assay: Antimicrobial activity against colistin resistant Klebsiella pneumoniae clinical isolate 3 assessed as bacterial growth inhibition incubated for 20 hrs by broth microdilution method; format: functional
Pseudomonas aeruginosa [6] = assay: Antimicrobial activity against Pseudomonas aeruginosa PAO1 assessed as bacterial growth inhibition incubated for 20 hrs by broth microdilution method; format: functional
Escherichia coli [7] = assay: Antibacterial activity against […] Escherichia coli clinical isolate 2 assessed as bacterial growth inhibition incubated for 20 hrs by broth microdilution method; format: functional
Escherichia coli [8] = assay: Antibacterial activity against […] Escherichia coli clinical isolate 1 assessed as bacterial growth inhibition incubated for 20 hrs by broth microdilution method; format: functional
Escherichia coli [9] = assay: Antibacterial activity against Escherichia coli ATCC 25922 assessed as bacterial growth inhibition incubated for 20 hrs by broth microdilution method; format: functional
Acinetobacter baumannii [10] = assay: Antimicrobial activity against Acinetobacter baumannii ATCC 19606 assessed as bacterial growth inhibition incubated for 20 hrs by broth microdilution method; format: functional
Klebsiella pneumoniae [11] = assay: Antimicrobial activity against colistin resistant Klebsiella pneumoniae clinical isolate 2 assessed as bacterial growth inhibition incubated for 20 hrs by broth microdilution method; format: functional
Klebsiella pneumoniae [12] = assay: Antimicrobial activity against Klebsiella pneumoniae ATCC 13883 assessed as bacterial growth inhibition incubated for 20 hrs by broth microdilution method; format: functional
Klebsiella pneumoniae [13] = assay: Antimicrobial activity against colistin resistant Klebsiella pneumoniae ATCC 13883 assessed as bacterial growth inhibition incubated for 20 hrs by broth microdilution method; format: functional
Acinetobacter baumannii [14] = assay: Antimicrobial activity against colistin resistant Acinetobacter baumannii clinical isolate 1 assessed as bacterial growth inhibition incubated for 20 hrs by broth microdilution method; format: functional
Escherichia coli [15] = assay: Antibacterial activity against […] Escherichia coli clinical isolate 3 assessed as bacterial growth inhibition incubated for 20 hrs by broth microdilution method; format: functional
Cell membrane = assay: Induction of membrane destabilization in Escherichia coli MG1655 assessed as SYTOX uptake at 2 times MIC measured every 5 mins for 120 mins by microplate reader assay; format: cell membranes
Acinetobacter baumannii [16] = assay: Antimicrobial activity against colistin resistant Acinetobacter baumannii clinical isolate 4 assessed as bacterial growth inhibition incubated for 20 hrs by broth microdilution method; format: functional
Pseudomonas aeruginosa [17] = assay: Antimicrobial activity against colistin resistant Pseudomonas aeruginosa clinical isolate 1 assessed as bacterial growth inhibition incubated for 20 hrs by broth microdilution method; format: functional
Pseudomonas aeruginosa [18] = assay: Potency index, ratio of polymyxin B MIC to test compound MIC for antibacterial activity against colistin resistant Pseudomonas aeruginosa clinical isolate 1; format: functional
Klebsiella pneumoniae [19] = assay: Antimicrobial activity against colistin resistant Klebsiella pneumoniae clinical isolate 1 assessed as bacterial growth inhibition incubated for 20 hrs by broth microdilution method; format: functional
Escherichia coli [20] = assay: Antimicrobial activity against […] Escherichia coli harboring mcr-1 assessed as bacterial growth inhibition incubated for 20 hrs by broth microdilution method; format: functional
Pseudomonas aeruginosa [21] = assay: Potency index, ratio of colistin MIC to test compound MIC for antibacterial activity against colistin resistant Pseudomonas aeruginosa clinical isolate 1; format: functional
Acinetobacter baumannii [22] = assay: Antimicrobial activity against colistin resistant Acinetobacter baumannii ATCC 19606 assessed as bacterial growth inhibition incubated for 20 hrs by broth microdilution method; format: functional
Klebsiella pneumoniae [23] = assay: Antimicrobial activity against colistin resistant Klebsiella pneumoniae clinical isolate 5 assessed as bacterial growth inhibition incubated for 20 hrs by broth microdilution method; format: functional
Pseudomonas aeruginosa [24] = assay: Antimicrobial activity against Pseudomonas aeruginosa ATCC 27853 assessed as bacterial growth inhibition incubated for 20 hrs by broth microdilution method; format: functional
Klebsiella pneumoniae [25] = assay: Antimicrobial activity against colistin resistant Klebsiella pneumoniae clinical isolate 6 assessed as bacterial growth inhibition incubated for 20 hrs by broth microdilution method; format: functional
Acinetobacter baumannii [26] = assay: Antimicrobial activity against colistin resistant Acinetobacter baumannii ATCC 3658/17 assessed as bacterial growth inhibition incubated for 20 hrs by broth microdilution method; format: functional

Structure (SMILES) | MIC (Acinetobacter baumannii [1]) | MIC (Escherichia coli [2]) | MIC (Klebsiella pneumoniae [3]) | MIC (Pseudomonas aeruginosa [4]) | MIC (Klebsiella pneumoniae [5]) | MIC (Pseudomonas aeruginosa [6]) | MIC (Escherichia coli [7]) | MIC (Escherichia coli [8]) | MIC (Escherichia coli [9]) | MIC (Klebsiella pneumoniae [11]) | MIC (Klebsiella pneumoniae [12]) | MIC (Klebsiella pneumoniae [13]) | MIC (Acinetobacter baumannii [14]) | MIC (Escherichia coli [15]) | MIC (Pseudomonas aeruginosa [17]) | Ratio (Pseudomonas aeruginosa [18]) | MIC (Klebsiella pneumoniae [19]) | MIC (Escherichia coli [20]) | other results
CCCCCCCC[C@@H]1NC(=O)[C@@H](Cc2ccccc2)NC(=O)[C@H](CCN)NC(=O)[C@@H](NC(=O)[C@H](CCN)NC(=O)[C@@H](NC(=O)[C@H](CCN)NC(=O)CCCCCCC)[C@@H](C)O)CCNC(=O)[C@H]([C@@H](C)O)NC(=O)[C@H](CCN)NC(=O)[C@H](CCN)NC1=O (Octanoyl-[Dab]T[Dab][Dab][Dab][dF][Gly(octyl)][Dab][Dab]T; lactam 4-C) | 0.25 µg/mL (≈ 0.201 µM) | 0.5 µg/mL (≈ 0.401 µM) | 16 µg/mL (≈ 12.8 µM) | 0.25 µg/mL (≈ 0.201 µM) | 16 µg/mL (≈ 12.8 µM) | 0.5 µg/mL (≈ 0.401 µM) | 4 µg/mL (≈ 3.21 µM) | 4 µg/mL (≈ 3.21 µM) | 0.5 µg/mL (≈ 0.401 µM) | 16 µg/mL (≈ 12.8 µM) | 0.25 µg/mL (≈ 0.201 µM) | 16 µg/mL (≈ 12.8 µM) | 4 µg/mL (≈ 3.21 µM) | 4 µg/mL (≈ 3.21 µM) | – | – | – | – | MIC (Acinetobacter baumannii [10]): 0.25 µg/mL (≈ 0.201 µM)
CCCCCCCC(=O)N[C@@H](CCN)C(=O)N[C@H](C(=O)N[C@@H](CCN)C(=O)N[C@H]1CCNC(=O)[C@H]([C@@H](C)O)NC(=O)[C@H](CCN)NC(=O)[C@H](CCN)NC(=O)C(CCCCCC)NC(=O)[C@@H](Cc2ccccc2)NC(=O)[C@@H](CCN)NC1=O)[C@H](C)O (stereo partly drawn) | – | – | – | – | – | – | – | – | – | – | – | – | – | – | – | – | – | – | Activity (Cell membrane): Active
CCCCCCCC(=O)N[C@@H](CCN)C(=O)N[C@H](C(=O)N[C@@H](CCN)C(=O)N[C@H]1CCNC(=O)[C@H]([C@@H](C)O)NC(=O)[C@H](CCN)NC(=O)[C@H](CCN)NC(=O)[C@H](CC(C)C)NC(=O)[C@@H](Cc2ccc(Br)cc2)NC(=O)[C@H](CCN)NC1=O)[C@@H](C)O | 2 µg/mL (≈ 1.58 µM) | 0.125 µg/mL (≈ 0.0986 µM) | 16 µg/mL (≈ 12.6 µM) | 0.125 µg/mL (≈ 0.0986 µM) | – | 0.125 µg/mL (≈ 0.0986 µM) | 2 µg/mL (≈ 1.58 µM) | 2 µg/mL (≈ 1.58 µM) | < 0.125 µg/mL | – | 0.125 µg/mL (≈ 0.0986 µM) | 16 µg/mL (≈ 12.6 µM) | 8 µg/mL (≈ 6.31 µM) | 2 µg/mL (≈ 1.58 µM) | 2 µg/mL (≈ 1.58 µM) | 2 | 16 µg/mL (≈ 12.6 µM) | 1 µg/mL (≈ 0.788 µM) | MIC (Acinetobacter baumannii [16]): 2 µg/mL (≈ 1.58 µM)
CC[C@H](C)[C@@H]1NC(=O)[C@@H](CC(C)C)NC(=O)[C@H](CCN)NC(=O)[C@@H](NC(=O)[C@@H](CO)NC(=O)[C@@H](NC(=O)[C@H](CCN)NC(=O)c2ccc(-c3ccccc3)cc2)[C@@H](C)O)CCNC(=O)[C@H](CC(C)C)NC(=O)[C@H](CCN)NC(=O)[C@H](CCN)NC1=O ({Benzoyl(4-Ph)}-[Dab]T[dS][Dab][Dab][dL]I[Dab][Dab]L; lactam 4-C) | 4 µg/mL (≈ 3.31 µM) | 2 µg/mL (≈ 1.65 µM) | – | 1 µg/mL (≈ 0.827 µM) | 2 µg/mL (≈ 1.65 µM) | – | 4 µg/mL (≈ 3.31 µM) | 4 µg/mL (≈ 3.31 µM) | – | 1 µg/mL (≈ 0.827 µM) | 2 µg/mL (≈ 1.65 µM) | 2 µg/mL (≈ 1.65 µM) | – | 2 µg/mL (≈ 1.65 µM) | 2 µg/mL (≈ 1.65 µM) | 2 | 1 µg/mL (≈ 0.827 µM) | 4 µg/mL (≈ 3.31 µM) | Ratio (Pseudomonas aeruginosa [21]): 2; MIC (Acinetobacter baumannii [22]): 0.5 µg/mL (≈ 0.414 µM); MIC (Klebsiella pneumoniae [23]): 1 µg/mL (≈ 0.827 µM); MIC (Pseudomonas aeruginosa [24]): 0.5 µg/mL (≈ 0.414 µM); MIC (Klebsiella pneumoniae [25]): 0.5 µg/mL (≈ 0.414 µM); MIC (Acinetobacter baumannii [26]): 1 µg/mL (≈ 0.827 µM)
